Data taken from publication PMC3162579 (Fluids and Barriers of the CNS, 2011).
“And” between values parts separate entries of the source, which are not always exact repeats. Identical values can stand only once.

How the values were obtained:
[1] = test system: brain-to-blood [^125I]hAβ(1-40) efflux transport across the BBB; assay: Brain Efflux Index (BEI) study: elimination of [^125I]hAβ(1-40) after intracerebral microinjection; assay type: in vivo; settings: for decrease of percentage of [^125I]hAβ(1-40) remaining in ipsilateral cerebrum versus vehicle-treated control: n = 5; for effect on percentage of [^125I]hAβ(1-40) remaining versus vehicle-treated control: single i.p. 1 μg/mouse
Protocol: Control mice were injected i.p. with 100 μL of each vehicle solution. After an indicated time (24, 48, or 72 h), the in vivo brain elimination experiments were performed using the intracerebral microinjection technique. Briefly, mice were anesthetized with an intramuscular injection of xylazine (1.22 mg/kg) and ketamine (125 mg/kg), and placed in a stereotaxic frame (SRS-6; Narishige, Tokyo, Japan) that determines the coordinates of the mouse brain coinciding with the secondary somatosensory cortex 2 (S2) region. A small hole was made 3.8 mm lateral to the bregma, and a fine injection needle fitted to a 5.0 μl microsyringe (Hamilton, Reno, NE, USA) was advanced to a depth of 2.5 mm. The solution of [^125I]hAβ(1-40) was freshly prepared from lyophilized [^125I]hAβ(1-40) immediately before each experiment. Lyophilized [^125I]hAβ(1-40) was solubilized in H2O and then added to an equal volume of 2-fold concentration of extracellular fluid (ECF) buffer (244 mM NaCl, 50 mM NaHCO3, 6 mM KCl, 2.8 mM CaCl2, 2.4 mM MgSO4, 0.8 mM K2HPO4, 20 mM D-glucose, and 20 mM HEPES, pH 7.4). […] The applied solution (0.3 μl) containing [^125I]hAβ(1-40) and [^3H]dextran in an ECF buffer was administered into the S2 region over a period of 30 sec. After microinjection, the microsyringe was left in place for 4 min to minimize any backflow. At 5, 30 or 60 min after microinjection, ipsilateral (left) and contralateral (right) cerebrum and cerebellum were excised and dissolved in 2.0 ml 2 M NaOH at 60°C for 1 h. The ^125I and ^3H radioactivities of the samples were measured in a γ-counter (ART300, Aloka, Tokyo, Japan) for 3 min and a liquid scintillation counter (TRI-CARB2050CA, Packard Instruments, Meriden, CT, USA) for 5 min, respectively. The BEI was defined by Equation (1), and the percentage of substrate remaining in the ipsilateral cerebrum (100-BEI) was determined using Equation (2): [drawing 1] [drawing 2]
The apparent elimination rate constant (kel) was determined from the slope given by fitting a semilogarithmic plot of (100-BEI) versus time, using the nonlinear least-squares regression analysis program MULTI [27].

[2] = test system: elimination of [^125I]hAβ(1-40) from rat brain; settings: cited from earlier work
Protocol: The present study examined the [^125I]hAβ(1-40) elimination from the brain for 60 min, and considerable degradation of injected [^125I]hAβ(1-40) might occur during this period.

TM-BBB4 cells [3] = assay: In vitro internalization (acid-resistant binding) of [^125I]hAβ(1-40) in TM-BBB4 cells; assay type: cell-based, mouse
Protocol: The TM-BBB4 cell line, established from transgenic mice harboring the temperature-sensitive SV40 large T-antigen gene, was used in this study. TM-BBB4 cells were cultured at 33°C in Dulbecco's modified Eagle's medium (DMEM; Nissui Pharmaceutical Co., Tokyo, Japan), supplemented with 20 mM NaHCO3, 2 mM L-glutamine, 15 ng/ml endothelial cell growth factor, 100 U/ml benzyl penicillin, […] streptomycin sulfate, and 10% fetal bovine serum (Moregate, Bulimba, Australia) in an atmosphere of 95% air and 5% CO2.
TM-BBB4 cells were seeded on 24-well plates (Becton Dickinson, Bedford, MA, USA) at a density of 1.0 × 10^5 cells/2 cm^2/well and cultured for 24 h. The cells were treated with the indicated concentrations of forskolin and U0126 or vehicle for 24 h, and then internalization of [^125I]hAβ(1-40) into TM-BBB4 cells was examined as previously described. Briefly, the extent of TM-BBB4 cell-[^125I]hAβ(1-40) (0.15 μCi/200 μl in ECF buffer) binding was measured for 3 min at 37°C. After the indicated times, binding was terminated by removing the solution, and the cells were washed three times with 1 ml ice-cold ECF buffer. The cells were then incubated with 1 ml ice-cold acetate-barbital buffer (28 mM CH3COONa, 120 mM NaCl, 20 mM barbital sodium (pH 3.0) and 360 mOsm/kg) for 20 min at 4°C to remove [^125I]hAβ(1-40) bound to the cell surface. After incubation, the buffer was then recovered (acid-soluble fraction) and the cells were subsequently washed three times with ice-cold acetate-barbital buffer.
(§1) Acid-resistant binding represents the amount of internalized [^125I]hAβ(1-40) in the TM-BBB4 cells. The cells were solubilized with 200 μl of 5 M NaOH overnight and neutralized with 200 μl of 5 M HCl. The ^125I radioactivity was measured using a γ-counter (ART310, Aloka, Tokyo, Japan). The protein content of the cultured cells was measured using a DC protein assay kit (Bio-Rad, Hercules, CA, USA) with bovine serum albumin as a standard.

[4] = design: method as in PMID 2339131; settings: mice receiving over 0.1 μg every other day for 2 weeks; cited from earlier work
[5] = after i.p. administration; cited from earlier work
Excerpt: Reduction of Aβ in the CNS is considered to be a primary therapeutic target for AD.

[6] = Tolerability in mice: body weight, behavior, residual [^3H]dextran (BBB integrity); assay type: in vivo; settings: mouse, data not shown
TM-BBB4 cells [7] = assay: Protein content of TM-BBB4 cells after the uptake (DC protein assay); assay type: cell-based, mouse
Protocol: as §1

Question: With `C[C@H](/C=C/[C@H](C)C(C)(C)O)[C@H]1CC[C@H]2/C(=C/C=C3C[C@@H](O)C[C@H](O)C3)CCC[C@]12C` [paricalcitol] as the compound, how does the “effect on [^125I]hAβ(1-40) elimination from mouse brain” value ([1]; data not shown) read?
Answer: did not significantly enhance

Question: Which “inhibition of elimination of [^125I]hAβ(1-40) from rat brain” value [2] does the source give for `N[C@@H](Cc1ccc(O)cc1)C(=O)O` [L-tyrosine] here?
Answer: not significantly inhibited

Question: What does the source list for `C=C[C@@]1(C)CC(=O)[C@]2(O)[C@@]3(C)[C@@H](O)CCC(C)(C)[C@@H]3[C@H](O)[C@H](OC(C)=O)[C@@]2(C)O1` [forskolin]?
Answer: decrease of percentage of [^125I]hAβ(1-40) remaining in mouse brain versus vehicle-treated group ([1]; single i.p. 2.3 μg/mouse, 24 h, 60 min after microinjection, n = 4-5): 16.4%; decrease of percentage of [^125I]hAβ(1-40) remaining in mouse brain versus vehicle-treated group ([1]; single i.p. 23 μg/mouse, 24 h, 60 min after microinjection, n = 4-5): 16.4%; effect on acid-resistant binding (internalization) of [^125I]hAβ(1-40) by TM-BBB4 cells (TM-BBB4 cells [3]; pre-treatment 10 μM for 24 h, 0.1% DMSO, [^125I]hAβ(1-40) 0.4 nM, 3 min, 37°C, n = 4): significantly increased

Question: What does the source list for `C=C1/C(=C\C=C2/CCC[C@]3(C)[C@@H]([C@H](C)CCCC(C)(C)O)CC[C@@H]23)C[C@@H](O)C[C@@H]1O` [1,25(OH)2D3, 1α,25-dihydroxyvitamin D3]?
Answer: initial percentage of [^125I]hAβ(1-40) remaining in the mouse brain ([1]; 1 μg/mouse i.p., 24 h, not significantly different from vehicle (114%)): 118%; percentage of [^125I]hAβ(1-40) remaining in brain compared with vehicle-treatment group ([1]; mouse, 1 μg/mouse i.p., 24 h, 60 min after microinjection, time-profile experiment (Figure 1A)): significantly lower; increase of [^125I]hAβ(1-40) elimination rate constant versus vehicle-treated group ([1]; mouse, 1 μg/mouse i.p., 24 h after injection, p < 0.01): 1.3 fold and 1.29 fold; decrease of percentage of [^125I]hAβ(1-40) remaining in ipsilateral cerebrum versus vehicle-treated control ([1]; mouse, single i.p. 0.2 μg/mouse, 24 h, 60 min after microinjection): 12.9%; effect on percentage of [^125I]hAβ(1-40) remaining versus vehicle-treated control ([1]; mouse, 24 h after administration, 60 min after microinjection, n = 4-5 (Figure 2B)): significant reduction; effect on percentage of [^125I]hAβ(1-40) remaining versus vehicle-treated control ([1]; mouse, 48 h after administration, 60 min after microinjection, n = 4-5): no significant reduction; effect on percentage of [^125I]hAβ(1-40) remaining versus vehicle-treated control ([1]; mouse, 72 h after administration, 60 min after microinjection, n = 4-5): no significant reduction; decrease of percentage of [^125I]hAβ(1-40) remaining in ipsilateral cerebrum versus vehicle-treated control ([1]; mouse, single i.p. 5 μg/mouse, 24 h, 60 min after microinjection): 19.5%; apparent elimination rate constant (kel) of [^125I]hAβ(1-40) across the BBB ([1]; mouse, single i.p. dose 1 μg/mouse, 24 h before microinjection, slope of (100-BEI) time profile 5-60 min, mean ± SD, n = 3-5, vehicle group 1.85 × 10^-2): 0.0238 ± 0.0009 min⁻¹; hypercalcemia (calcium level) [4]: over 12 mg/dL; effect on [^125I]hAβ(1-40) internalization by TM-BBB4 (TM-BBB4 cells [3]; data not shown): failed to provide consistent results; time at which plasma concentration reaches a maximum [5]: ≤ 2 h; time at which plasma concentration returns to baseline [5]: 24 h; adverse effects during repeated treatment ([6]; 1 μg/day, from day 4): reduced body weight and abnormal behavior; body weight ([6]; single i.p. dose, up to 72 h after administration): No significant decrease

Question: With `N#CC(=C(/N)Sc1ccccc1N)/C(C#N)=C(/N)Sc1ccccc1N` [U0126] as the compound, how does the “effect on forskolin-induced enhancement of [^125I]hAβ(1-40) acid-resistant binding” value (TM-BBB4 cells [3]; U0126 25 μM with forskolin 10 μM for 24 h, [^125I]hAβ(1-40) 0.4 nM, 3 min, n = 4) read?
Answer: suppressed

Question: And the “reduction of acid-resistant binding of [^125I]hAβ(1-40) compared with the control” value (TM-BBB4 cells [3]; pre-treatment with U0126 alone, 25 μM, 24 h, 3 min uptake, n = 4)?
Answer: 11.2%

Question: What about the “protein content of the cells after the uptake” value (TM-BBB4 cells [7]; 24 h treatment (U0126 25 μM, forskolin 10 μM), mean ± SEM, n = 4, control 89.8 ± 6.0) of the same compound?
Answer: 72.0 ± 7.0 μg protein/well

Question: What about the “reduction of protein content of the cells after the uptake” value (TM-BBB4 cells [7]; U0126 25 μM, 24 h, versus control 89.8 ± 6.0 μg protein/well) of the same compound?
Answer: 19.8%
